Assay results reported in patent publication US11925690B2, “Bifunctional molecules for targeting Rpn11” (AMPHISTA THERAPEUTICS LTD, priority 2018, dated 2024).

Tests used:
Type in all cases: cell-based
Brd4 [1] = molecular target: T1, Brd4 (Homo sapiens, UniProt O60885); test: Mechanistic evaluation: Brd4 degradation after inhibitor pre-treatment; conditions: HEK293, 1 μM degrader 4 h
T1 construct: immunoblot analysis of Brd4 following 4 h treatment of HEK293 cells; endogenous in cells; host or cells: HEK293 (CRL-1573)
Description: HeLa (5×10^5) and HEK293 (1×10^6) cells were seeded in standard 6-well plates (2 mL medium) overnight before pre-treatment with inhibitors (10 μM bortezomib, 10 μM capzimin, 10 μM JQ1). After a 0.5 h pre-incubation time, cells were subsequently treated with vehicle, 1 μM MZ1 or 1 μM 11JQ15, yielding a final overall DMSO concentration of 0.2% v/v. After 4 h incubation, cells were washed with DPBS (Gibco) and lysed using 85 μL RIPA buffer (Sigma-Aldrich) supplemented with cOmplete Mini EDTA-free protease inhibitor cocktail (Roche) and benzonase. Lysates were clarified by centrifugation (20000 g, 10 min, 4° C.) and the total protein content of the supernatant was quantified using a Bradford colorimetric assay. Samples were prepared using equal amounts of total protein and LDS sample buffer (Invitrogen).
Brd4 band intensities were normalized to tubulin loading control and reported in FIG. 6B as % of the average 0.1% DMSO vehicle intensity. Each bar is mean±SEM of three independent experiments performed in duplicate (n=3).

Brd4 [2] = molecular target: T1, Brd4; test: Immunoblot analysis of Brd4 in HEK293 cells (prodrug activity, negative SAR); conditions: HEK293, 1 μM, 4 h, n=3
Description: Immunoblotting. Proteins were separated by SDS-PAGE on NuPage 4-12% Bis-Tris gels, followed by transfer to Amersham Protran 0.45 NC nitrocellulose membrane (GE Healthcare) using wet transfer. Membranes were blocked using 5% w/v milk in Tris-buffered saline (TBS) with 0.1% Tween-20. Blots were probed (overnight at 4 °C) using anti-Brd2 (Abcam ab139690, 1:2,000 dilution), anti-Brd3 (Abcam ab50818, 1:500 dilution), and anti-Brd4 (Abcam ab128874, 1:1,000 dilution) primary antibodies, as appropriate. The next day, blots were washed with TBST and incubated (1 h at Room temperature) with anti-Tubulin hFAB-rhodamine (BioRad, 12004166) primary antibody, and either anti-rabbit IRDye 800CW (Licor 1:1,000 dilution) or anti-mouse IRDye 800CW (Licor 1:1,000 dilution) secondary antibody. Blots were developed using a Bio-Rad ChemiDoc MP Imaging System, and band quantification was performed using Image Studio software (LiCor). Band intensities were normalized to the tubulin loading control and reported as % of the average 0.1% DMSO vehicle intensity. Degradation data was plotted and analysed using Prism (Graphpad, version 8). […]
HEK293 (1×10^6) cells incubated with DMSO, 1 μM 11JQ15 or 1 μM 11JQ17 for 4 h with a final DMSO concentration of 0.1% v/v. […] Degradation data was plotted and analysed using Prism (Graphpad, version 8), where bars are mean±SEM of three independent experiments.

Brd2 = Brd2 (Homo sapiens, UniProt P25440); test: Time-dependent BET degradation, immunoblot; parameters: endogenous in cells; host or cells: HEK293 (CRL-1573), HeLa (CCL-2); conditions: HeLa, Brd2, 1 μM
Sequence of Brd2 (P25440 whole entry): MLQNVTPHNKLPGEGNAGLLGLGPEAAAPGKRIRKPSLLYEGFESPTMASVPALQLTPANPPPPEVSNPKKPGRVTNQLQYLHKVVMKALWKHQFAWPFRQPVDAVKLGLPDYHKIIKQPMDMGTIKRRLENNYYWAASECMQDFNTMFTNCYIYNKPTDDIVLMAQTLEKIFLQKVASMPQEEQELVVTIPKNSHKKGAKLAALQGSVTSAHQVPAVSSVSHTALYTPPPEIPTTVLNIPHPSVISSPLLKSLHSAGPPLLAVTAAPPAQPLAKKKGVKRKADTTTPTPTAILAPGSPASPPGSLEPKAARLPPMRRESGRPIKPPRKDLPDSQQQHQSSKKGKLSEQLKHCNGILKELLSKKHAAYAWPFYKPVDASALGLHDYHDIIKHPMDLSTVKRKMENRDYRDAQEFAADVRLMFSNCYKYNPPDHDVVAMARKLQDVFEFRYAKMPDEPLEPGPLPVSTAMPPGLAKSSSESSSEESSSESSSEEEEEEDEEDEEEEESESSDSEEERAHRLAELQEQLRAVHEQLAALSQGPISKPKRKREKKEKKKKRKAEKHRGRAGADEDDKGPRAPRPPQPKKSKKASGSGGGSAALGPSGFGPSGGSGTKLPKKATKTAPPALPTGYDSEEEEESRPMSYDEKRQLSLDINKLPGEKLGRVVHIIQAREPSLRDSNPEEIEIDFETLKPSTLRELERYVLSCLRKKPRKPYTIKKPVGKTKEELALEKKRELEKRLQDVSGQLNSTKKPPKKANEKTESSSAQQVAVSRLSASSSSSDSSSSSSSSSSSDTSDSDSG
Description: Immunoblotting. Proteins were separated by SDS-PAGE on NuPage 4-12% Bis-Tris gels, followed by transfer to Amersham Protran 0.45 NC nitrocellulose membrane (GE Healthcare) using wet transfer. Membranes were blocked using 5% w/v milk in Tris-buffered saline (TBS) with 0.1% Tween-20. Blots were probed (overnight at 4 °C) using anti-Brd2 (Abcam ab139690, 1:2,000 dilution), anti-Brd3 (Abcam ab50818, 1:500 dilution), and anti-Brd4 (Abcam ab128874, 1:1,000 dilution) primary antibodies, as appropriate. The next day, blots were washed with TBST and incubated (1 h at Room temperature) with anti-Tubulin hFAB-rhodamine (BioRad, 12004166) primary antibody, and either anti-rabbit IRDye 800CW (Licor 1:1,000 dilution) or anti-mouse IRDye 800CW (Licor 1:1,000 dilution) secondary antibody. Blots were developed using a Bio-Rad ChemiDoc MP Imaging System, and band quantification was performed using Image Studio software (LiCor). Band intensities were normalized to the tubulin loading control and reported as % of the average 0.1% DMSO vehicle intensity. Degradation data was plotted and analysed using Prism (Graphpad, version 8).
HEK293 (0.5×10^6) cells were seeded in standard 6-well plates (2 mL medium) overnight before treatment with compounds at 1 μM concentration, with a final DMSO concentration of 0.1% v/v. After incubation for the desired time (0-24 hrs), cells were washed with DPBS (Gibco) and lysed using 85 μL RIPA buffer (Sigma-Aldrich) supplemented with complete Mini EDTA-free protease inhibitor cocktail (Roche) and benzonase. Lysates were clarified by centrifugation (20000 g, 10 min, 4° C.) and the total protein content of the supernatant was quantified using a Bradford colorimetric assay. Samples were prepared using equal amounts of total protein and LDS sample buffer (Invitrogen). Band intensities were normalized to the tubulin loading control and reported as % of the average 0.1% DMSO vehicle intensity. Degradation data was plotted and analysed using Prism (Graphpad, version 8).
MZ1 and 11JQ17 were used at 1 μM (4 h) for positive and negative controls, respectively. […]

| Brd4 degradation in the presence of JQ1 (Brd4 [1]; 10 μM JQ1 pre-treatment 0.5 h) | Brd4 degradation in the presence of bortezomib (Brd4 [1]; 10 μM bortezomib pre-treatment 0.5 h) | Brd4 degradation in the presence of capzimin (Brd4 [1]; 10 μM capzimin pre-treatment 0.5 h) | Brd4 levels (FIG. 3) (Brd4 [2]) | Dmax at 1 µM (Brd2) | Abs. T1/2 (Brd2; time to deplete 50% of the protein relative to DMSO) | T1/2 (Brd2; time to reach 50% of the Dmax) | SMILES |
| --- | --- | --- | --- | --- | --- | --- | --- |
| completely blocked | completely blocked | significantly blocked | significant depletion of Brd4 levels |  |  |  | Cc1sc2c(c1C)C(c1ccc(Cl)cc1)=N[C@@H](CC(=O)NCCOCCNC(=O)c1cc(SC(=O)c3ccccc3)c3ncc(C(=O)NCCc4nccs4)cc3c1)c1nnc(C)n1-2 [Example 11JQ15] |
|  |  |  |  | 50% | 4 h | 4 h | Cc1sc2c(c1C)C(c1ccc(Cl)cc1)=N[C@@H](CC(=O)NCCCCNC(=O)c1cc(S)c3ncc(C(=O)NCCc4nccs4)cc3c1)c1nnc(C)n1-2 [Example 11JQ7] |
